In ChEMBL document CHEMBL3244128, “Aromatic esters of nonquaternary carbon-4 piperidinols as analgesics” (J Med Chem, 1978):
Activity calls are given as the source filed them. The rule behind the calls is not given here.

Key:
Mus musculus [1] = assay: Analgesic activity in mouse at 20 mg/kg, sc by hot-plate method; format: functional, organism-based; set-up: dose 20 mg/kg
Mus musculus [2] = assay: Analgesic activity in sc dosed mouse by hot-plate method; format: functional
[3] = molecular target: Opioid receptor (Rattus norvegicus) (UniProt P33533+P34975+P33535); assay: Displacement of [3H]dihydromorphine from opiate receptor in rat brain homogenates; format: tissue-based
Chain of Opioid receptor (Rattus norvegicus) (P33533 whole entry, looked up): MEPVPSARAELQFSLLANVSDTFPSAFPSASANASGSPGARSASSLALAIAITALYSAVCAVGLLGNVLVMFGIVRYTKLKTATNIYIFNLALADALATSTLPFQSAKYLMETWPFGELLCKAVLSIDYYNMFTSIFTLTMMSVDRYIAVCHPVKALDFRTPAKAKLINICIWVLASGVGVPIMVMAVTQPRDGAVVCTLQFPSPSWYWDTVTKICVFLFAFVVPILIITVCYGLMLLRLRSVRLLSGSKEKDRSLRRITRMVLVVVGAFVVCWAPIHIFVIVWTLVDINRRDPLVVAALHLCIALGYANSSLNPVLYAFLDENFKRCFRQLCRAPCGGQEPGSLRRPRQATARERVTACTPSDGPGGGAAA
Chain of Opioid receptor (Rattus norvegicus) (P33535 whole entry, looked up): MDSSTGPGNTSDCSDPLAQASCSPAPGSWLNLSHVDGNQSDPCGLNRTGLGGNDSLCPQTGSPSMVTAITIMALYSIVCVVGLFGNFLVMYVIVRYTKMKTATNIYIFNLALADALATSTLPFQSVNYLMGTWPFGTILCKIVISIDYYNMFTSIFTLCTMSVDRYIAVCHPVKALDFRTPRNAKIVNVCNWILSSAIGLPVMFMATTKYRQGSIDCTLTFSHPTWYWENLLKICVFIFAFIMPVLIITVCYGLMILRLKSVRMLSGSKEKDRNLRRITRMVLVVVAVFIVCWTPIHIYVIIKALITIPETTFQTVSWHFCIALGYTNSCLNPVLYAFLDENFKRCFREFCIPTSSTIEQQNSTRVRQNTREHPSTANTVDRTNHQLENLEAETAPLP
Chain of Opioid receptor (Rattus norvegicus) (P34975 whole entry, looked up): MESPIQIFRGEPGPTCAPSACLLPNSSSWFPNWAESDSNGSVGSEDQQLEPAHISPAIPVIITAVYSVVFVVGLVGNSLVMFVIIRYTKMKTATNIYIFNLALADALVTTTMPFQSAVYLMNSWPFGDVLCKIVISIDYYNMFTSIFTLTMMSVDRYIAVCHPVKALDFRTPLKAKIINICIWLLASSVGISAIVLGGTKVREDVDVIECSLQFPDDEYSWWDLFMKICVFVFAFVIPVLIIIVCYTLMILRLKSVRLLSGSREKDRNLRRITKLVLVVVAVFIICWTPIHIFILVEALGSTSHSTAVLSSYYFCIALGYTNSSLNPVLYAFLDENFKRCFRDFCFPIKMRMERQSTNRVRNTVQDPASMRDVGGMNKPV

Mus musculus [4] = assay: Analgesic activity in sc dosed mouse by Nilsen method; format: functional
Mus musculus [5] = assay: Toxicity in mouse at 1.25 to 20 mg/kg, sc; format: organism-based; set-up: dose 1.25-20 mg/kg, route subcutaneous; details: in vivo
Rhesus monkey [6] = assay: Toxicity in nonwithdrawn monkey assessed as convulsion at 16 mg/kg up to 5 mins; format: organism-based, Macaca mulatta; set-up: dose 16 mg/kg; details: in vivo
Rhesus monkey [7] = assay: Toxicity in nonwithdrawn monkey assessed as retching, vomiting and preconvulsive appearance at 16 mg/kg up to 5 mins; format: organism-based, Macaca mulatta; set-up: dose 16 mg/kg; details: in vivo
Mus musculus [8] = assay: Toxicity in mouse at 5 to 40 mg/kg, sc; format: organism-based; set-up: dose 5-40 mg/kg, route subcutaneous; details: in vivo
Rhesus monkey [9] = assay: Toxicity in nonwithdrawn monkey assessed as nausea at 4 mg/kg; format: organism-based, Macaca mulatta; set-up: dose 4 mg/kg; details: in vivo
Mus musculus [10] = assay: Toxicity in mouse at 1.56 to 25 mg/kg, sc; format: organism-based; set-up: dose 1.56-25 mg/kg, route subcutaneous; details: in vivo
Rhesus monkey [11] = assay: Toxicity in nonwithdrawn monkey assessed as nausea and piloerection at 8 mg/kg; format: organism-based, Macaca mulatta; set-up: dose 8 mg/kg; details: in vivo
Rhesus monkey [12] = assay: Toxicity in monkey assessed as morphine-like physical dependence liability at 2 to 4 mg/kg; format: organism-based, Macaca mulatta; set-up: dose 2-4 mg/kg; details: in vivo
Rhesus monkey [13] = assay: Toxicity in nonwithdrawn monkey assessed as precipitation of abstinence sign at 8 mg/kg; format: organism-based, Macaca mulatta; set-up: dose 8 mg/kg; details: in vivo
Mus musculus [14] = assay: Toxicity in mouse at 54.5 mg/kg, sc; format: organism-based; set-up: dose 54.5 mg/kg, route subcutaneous; details: in vivo
Mus musculus [15] = assay: Analgesic activity in mouse at 50 mg/kg, sc by hot-plate method; format: functional, organism-based; set-up: dose 50 mg/kg
Mus musculus [16] = assay: Analgesic activity in mouse at 20 mg/kg, sc by Nilsen method; format: functional, organism-based; set-up: dose 20 mg/kg
Mus musculus [17] = assay: Toxicity in mouse at 20 mg/kg, sc; format: organism-based; set-up: dose 20 mg/kg, route subcutaneous; details: in vivo

SMILES | ED50 (Mus musculus [2]) | also measured
CN1CCC(OC(=O)c2ccccc2Oc2ccccc2)CC1 | – | Analgesic activity (active/inactive) (Mus musculus [1]): Active
Cc1cccc(C(=O)OC2CCN(C)CC2)c1 | inactive | –
Cc1ccc(C(=O)OC2CCN(C)CC2)cc1F | 13.9 mg/kg | –
COc1cc(C(=O)OC2CCN(C)CC2)ccc1C | 11.9 mg/kg | –
CN1CCC(OC(=O)c2cc(I)cc(I)c2I)CC1 | inactive | –
CCOC(=O)[C@H]1CN(C)CC[C@@H]1OC(=O)c1ccc(OC)c(OC)c1 (relative stereo) | 11.8 mg/kg | –
CN1CCC(OC(=O)C2c3ccccc3-c3ccccc32)CC1 | inactive | –
CN1CCC(OC(=O)Cc2ccccc2)CC1 | inactive | –
COc1ccc(C(=O)O[C@H]2CCN(C)C[C@H]2C)cc1OC (relative stereo) | – | K [3]: > 100 µM; Analgesic activity (active/inactive) (Mus musculus [1]): Active
CN1CCC(OC(=O)CCCc2ccccc2)CC1 | inactive | –
Cc1cc(C)c(C(=O)OC2CCN(C)CC2)cc1C | 20 mg/kg | –
CN1CCC(OC(=O)c2ccc(F)cc2)CC1 | 11.5 mg/kg | –
COc1ccc(C(=O)OC2CCN(C)CC2)cc1OC | 3.9 mg/kg | ED50 (Mus musculus [4]): 13.1 mg/kg; Activity (Mus musculus [5]): Non-toxic; Activity (Rhesus monkey [6]): Toxic; Activity (Rhesus monkey [7]): Toxic; Activity (Mus musculus [8]): Non-toxic; Activity (Rhesus monkey [9]): Toxic; Activity (Mus musculus [10]): Non-toxic; Activity (Rhesus monkey [11]): Toxic; Activity (Rhesus monkey [12]): Non-toxic; Activity (Rhesus monkey [13]): Non-toxic; Activity (Mus musculus [14]): Non-toxic
CN1CCC(OC(=O)c2ccccc2CCc2ccccc2)CC1 | – | ED50 (Mus musculus [15]): Active
COc1cc(OC)cc(C(=O)OC2CCN(C)CC2)c1 | 9.3 mg/kg | –
CCOC(=O)[C@@H]1CN(C)CC[C@@H]1OC(=O)c1ccc(OC)c(OC)c1 (relative stereo) | 4 mg/kg | ED50 (Mus musculus [16]): Active; Activity (Mus musculus [17]): Toxic
Cc1ccc(C(=O)OC2CCN(C)CC2)cc1C | – | Analgesic activity (active/inactive) (Mus musculus [1]): Active
COc1ccc2c3c1O[C@H]1[C@@H](O)C=C[C@H]4[C@@H](C2)N(C)CC[C@@]341 [CODEINE] | 7.5 mg/kg | ED50 (Mus musculus [4]): 4.5 mg/kg
COc1cccc(C(=O)OC2CCN(C)CC2)c1 | 6.1 mg/kg | Activity (Mus musculus [10]): Non-toxic; Activity (Mus musculus [14]): Non-toxic
COc1ccccc1C(=O)OC1CCN(C)CC1 | 10.6 mg/kg | –
COc1ccc(C(=O)OC2CCN(C)CC2)cc1 | 10.5 mg/kg | –
CN1CCC(OC(=O)c2cccc(O)c2)CC1 | 16.6 mg/kg | –
COc1ccc(CCC(=O)OC2CCN(C)CC2)cc1OC | 30.7 mg/kg | ED50 (Mus musculus [4]): 32 mg/kg
CCC(=O)OC1CCN(C)CC1 | 20.2 mg/kg | –

SMILES | ED50 (Mus musculus [2]) | also measured
COc1cc(OC)c(C(=O)OC2CCN(C)CC2)c(OC)c1 | 11.6 mg/kg | –
Cc1[nH]c(C)c(C(=O)OC2CCN(C)CC2)c1C | 4.9 mg/kg | ED50 (Mus musculus [4]): 7.1 mg/kg
CN1CCC(OC(=O)c2ccc(C(C)(C)C)cc2)CC1 | 23.3 mg/kg | –
CCOc1ccccc1C(=O)OC1CCN(C)CC1 | – | Analgesic activity (active/inactive) (Mus musculus [1]): Active
Cc1ccc(C)c(C(=O)OC2CCN(C)CC2)c1 | 12.5 mg/kg | –
COc1cccc(C(=O)OC2CCN(C)CC2)c1OC | 8.9 mg/kg | ED50 (Mus musculus [4]): 19.6 mg/kg
Cc1cc(C)c(C(=O)OC2CCN(C)CC2)c(C)c1 | 8.3 mg/kg | ED50 (Mus musculus [4]): 46 mg/kg
CN1CCC(OC(=O)c2ccccc2F)CC1 | 10.6 mg/kg | –
Cc1cc(C)c(C(=O)OC2CCN(CCc3ccccc3)CC2)c(C)c1 | 37 mg/kg | –
CN1CCC(OC(=O)c2ccc(Cl)c(Cl)c2)CC1 | 27.1 mg/kg | –
Cc1cc(C)cc(C(=O)OC2CCN(C)CC2)c1 | 24.4 mg/kg | –
CN1CCC(OC(=O)/C=C/c2ccccc2)CC1 | 16.2 mg/kg | –
CN1CCC(OC(=O)c2cccc(F)c2)CC1 | 15.1 mg/kg | –
Cc1ccc(C(=O)OC2CCN(C)CC2)cc1 | 18.2 mg/kg | –
CN1CCC(OC(=O)c2ccccc2)CC1 | 9.6 mg/kg | –
COc1ccc(C(=O)O[C@H]2CCN(C)C[C@@H]2C)cc1OC | 8.3 mg/kg | K [3]: > 100 µM
CN1CC[C@]23c4c5ccc(O)c4O[C@H]2[C@@H](O)C=C[C@H]3[C@H]1C5 [MORPHINE] | 1.2 mg/kg | ED50 (Mus musculus [4]): 0.8 mg/kg
Cc1ccccc1C(=O)OC1CCN(C)CC1 | 8.9 mg/kg | –
CN1CCC(OC(=O)c2ccc3c(c2)OCO3)CC1 | 7.3 mg/kg | –
COc1cccc(OC)c1C(=O)OC1CCN(C)CC1 | 73.8 mg/kg | –
Cc1cccc(C)c1C(=O)OC1CCN(C)CC1 | 15.2 mg/kg | –
CC(C(=O)OC1CCN(C)CC1)c1ccccc1 (stereo unspecified) | 25.4 mg/kg | –
CN1CCC(OC(=O)C23CC4CC(CC(C4)C2)C3)CC1 | 15.9 mg/kg | –
COc1cc(C(=O)OC2CCN(C)CC2)cc(OC)c1OC | 15.4 mg/kg | –
